Test results taken from ChEMBL document CHEMBL1671624, “Efficacy of quinoxaline-2-carboxylate 1,4-di-N-oxide derivatives in experimental tuberculosis” (Antimicrob Agents Chemother, 2008).
In brackets after ≈: the same amount, converted by molar mass.

Experiments:
Type in all cases: functional
[1] = test system: Mycobacterium tuberculosis; assay: Antibacterial activity against isoniazid-resistant Mycobacterium tuberculosis by microplate Alamar Blue assay
[2] = test system: Mycobacterium tuberculosis; assay: Antibacterial activity against rifampin-resistant Mycobacterium tuberculosis by microplate Alamar Blue assay
[3] = test system: Mycobacterium tuberculosis; assay: Antibacterial activity against thiacetazone-resistant Mycobacterium tuberculosis by microplate Alamar Blue assay
[4] = test system: Mycobacterium tuberculosis; assay: Antibacterial activity against ethambutol-resistant Mycobacterium tuberculosis by microplate Alamar Blue assay
[5] = test system: Mycobacterium tuberculosis; assay: Antibacterial activity against ciprofloxacin-resistant Mycobacterium tuberculosis by microplate Alamar Blue assay
[6] = test system: Mycobacterium tuberculosis; assay: Antibacterial activity against kanamycin-resistant Mycobacterium tuberculosis by microplate Alamar Blue assay
[7] = test system: Mycobacterium tuberculosis; assay: Antibacterial activity against ethionamide-resistant Mycobacterium tuberculosis by microplate Alamar Blue assay

SMILES	MIC [1]	MIC [2]	MIC [3]	MIC [4]	MIC [5]	MIC [6]	MIC [7]
CCOC(=O)c1c(C)[n+]([O-])c2cc(C)c(C)cc2[n+]1[O-]	6.25 µg/mL (≈ 22.6 µM)	≤ 3.13 µg/mL	≤ 3.13 µg/mL	≤ 3.13 µg/mL	12.5 µg/mL (≈ 45.2 µM)	≤ 3.13 µg/mL	6.25 µg/mL (≈ 22.6 µM)
CCOC(=O)c1c(C)[n+]([O-])c2ccc(C)cc2[n+]1[O-]	–	3.13 µg/mL (≈ 11.9 µM)	0.39 µg/mL (≈ 1.49 µM)	–	6.25 µg/mL (≈ 23.8 µM)	–	6.25 µg/mL (≈ 23.8 µM)
CCOC(=O)c1c(C)[n+]([O-])c2ccccc2[n+]1[O-]	1.56 µg/mL (≈ 6.28 µM)	1.56 µg/mL (≈ 6.28 µM)	–	–	3.13 µg/mL (≈ 12.6 µM)	1.56 µg/mL (≈ 6.28 µM)	–
CCOC(=O)c1c(C)[n+]([O-])c2cc(Cl)c(Cl)cc2[n+]1[O-]	0.39 µg/mL (≈ 1.23 µM)	0.2 µg/mL (≈ 0.631 µM)	–	0.2 µg/mL (≈ 0.631 µM)	0.2 µg/mL (≈ 0.631 µM)	≤ 0.1 µg/mL	–
COCCOC(=O)c1c(C)[n+]([O-])c2cc(Cl)c(Cl)cc2[n+]1[O-]	≤ 0.2 µg/mL	≤ 0.2 µg/mL	0.39 µg/mL (≈ 1.12 µM)	–	0.39 µg/mL (≈ 1.12 µM)	–	0.78 µg/mL (≈ 2.25 µM)
Cc1ccc2c(c1)[n+]([O-])c(C(=O)OCc1ccccc1)c(C)[n+]2[O-]	–	0.39 µg/mL (≈ 1.2 µM)	0.39 µg/mL (≈ 1.2 µM)	–	0.39 µg/mL (≈ 1.2 µM)	–	1.56 µg/mL (≈ 4.81 µM)
Cc1c(C(=O)OCc2ccccc2)[n+]([O-])c2ccccc2[n+]1[O-]	0.2 µg/mL (≈ 0.645 µM)	0.2 µg/mL (≈ 0.645 µM)	0.2 µg/mL (≈ 0.645 µM)	–	0.1 µg/mL (≈ 0.322 µM)	–	0.4 µg/mL (≈ 1.29 µM)
Cc1c(C(=O)OCc2ccccc2)[n+]([O-])c2cc(Cl)c(Cl)cc2[n+]1[O-]	1.56 µg/mL (≈ 4.11 µM)	0.39 µg/mL (≈ 1.03 µM)	0.78 µg/mL (≈ 2.06 µM)	0.78 µg/mL (≈ 2.06 µM)	0.39 µg/mL (≈ 1.03 µM)	0.39 µg/mL (≈ 1.03 µM)	0.78 µg/mL (≈ 2.06 µM)
COC(=O)c1c(C)[n+]([O-])c2ccc(C)cc2[n+]1[O-]	6.25 µg/mL (≈ 25.2 µM)	3.13 µg/mL (≈ 12.6 µM)	1.56 µg/mL (≈ 6.28 µM)	25 µg/mL (≈ 101 µM)	6.25 µg/mL (≈ 25.2 µM)	25 µg/mL (≈ 101 µM)	3.13 µg/mL (≈ 12.6 µM)
COC(=O)c1c(C)[n+]([O-])c2cc(C)c(C)cc2[n+]1[O-]	3.13 µg/mL (≈ 11.9 µM)	3.13 µg/mL (≈ 11.9 µM)	≤ 1.56 µg/mL	≤ 1.56 µg/mL	3.13 µg/mL (≈ 11.9 µM)	3.13 µg/mL (≈ 11.9 µM)	3.13 µg/mL (≈ 11.9 µM)
CCOC(=O)c1c(C)[n+]([O-])c2ccc(Cl)cc2[n+]1[O-]	0.39 µg/mL (≈ 1.38 µM)	0.39 µg/mL (≈ 1.38 µM)	–	0.39 µg/mL (≈ 1.38 µM)	0.78 µg/mL (≈ 2.76 µM)	0.39 µg/mL (≈ 1.38 µM)	–
